From PubChem BioAssay AID248 (DTP/NCI, 2004)
“And” between values parts separate entries of the source, which are not always exact repeats. Identical values can stand only once. Inconclusive results and toxic doses are left out. Cut-off read from the data, not from the text of the source: active = T/C of 150% or more; inactive = T/C below 125%.

Tested on: L1210 leukemia ip in BDF1 mice, survival T/C
Test: NCI In Vivo Anticancer Drug Screen. Data for tumor model L1210 Leukemia (intraperitoneal) in B6D2F1 (BDF1) mice
Conditions: endpoint: mean survival time, higher = longer survival
In short: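 Transplanted-tumor mice were given test agent; controls received vehicle only. Survival readings from the two groups were divided (treated over control).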

[1] = dose: 100.0 mg/kg/injection, schedule: Q01DX001 (ip), vehicle: saline
[2] = dose: 200.0 mg/kg/injection, schedule: Q01DX001 (ip), vehicle: saline
[3] = dose: 400.0 mg/kg/injection, schedule: Q01DX001 (ip), vehicle: saline
[4] = dose: 100.0 mg/kg/injection, schedule: Q04DX003 (ip), vehicle: other
[5] = dose: 100.0 mg/kg/injection, schedule: Q01DX009 (ip), vehicle: Klucel (hydroxypropylcellulose) (HPC)
[6] = dose: 200.0 mg/kg/injection, schedule: Q01DX009 (ip), vehicle: Klucel (hydroxypropylcellulose) (HPC)
[7] = dose: 400.0 mg/kg/injection, schedule: Q01DX009 (ip), vehicle: Klucel (hydroxypropylcellulose) (HPC)

Measured: T/C

C=CCN(CC=C)CCN1CCN(CCCN2c3ccccc3Sc3ccc(C(F)(F)F)cc32)CC1
inactive: dose: 6.25 mg/kg/injection, schedule: Q01DX009 (ip), vehicle: saline 98 % of control | dose: 6.25 mg/kg/injection, schedule: Q04DX003 (ip), vehicle: saline 109 % of control | dose: 12.5 mg/kg/injection, schedule: Q01DX009 (ip), vehicle: saline 100 % of control | dose: 12.5 mg/kg/injection, schedule: Q04DX003 (ip), vehicle: saline 91 % of control | dose: 25.0 mg/kg/injection, schedule: Q01DX009 (ip), vehicle: saline 94 % of control | dose: 25.0 mg/kg/injection, schedule: Q04DX003 (ip), vehicle: saline 112 % of control | dose: 50.0 mg/kg/injection, schedule: Q04DX003 (ip), vehicle: saline 97 % of control | dose: 56.25 mg/kg/injection, schedule: Q01DX001 (ip), vehicle: saline 102 % of control | dose: 100.0 mg/kg/injection, schedule: Q04DX003 (ip), vehicle: saline 119 % of control | dose: 112.5 mg/kg/injection, schedule: Q01DX001 (ip), vehicle: saline 114 % of control

O=C1C(=O)c2ccccc2C(O)=C1CC=C1CCCC1
inactive: dose: 100.0 mg/kg/injection, schedule: Q01DX001 (ip), vehicle: water 109 % of control | dose: 100.0 mg/kg/injection, schedule: Q01DX009 (ip), vehicle: water 105 % of control | dose: 200.0 mg/kg/injection, schedule: Q01DX009 (ip), vehicle: water 103 % of control

Brc1cccc2c1C[n+]1ccccc1-2
inactive: dose: 75.0 mg/kg/injection, schedule: Q01DX001 (ip), vehicle: saline 96 % of control | dose: 150.0 mg/kg/injection, schedule: Q01DX001 (ip), vehicle: saline 92 % of control

CC1C2CC3OC(=O)C1(C)C3C2 (stereo not drawn)
inactive: [1] 92 % of control | [2] 98 % of control | [3] 96 % of control

O=C(O)Cc1ccc(I)cc1
inactive: dose: 100.0 mg/kg/injection, schedule: Q04DX003 (ip), vehicle: gum acacia 98 % of control | dose: 200.0 mg/kg/injection, schedule: Q04DX003 (ip), vehicle: gum acacia 96 % of control | dose: 400.0 mg/kg/injection, schedule: Q04DX003 (ip), vehicle: gum acacia 94 % of control

CN=C(NCCCN1CCOCC1)c1ccc(NC(=O)c2ccc(C(=O)Nc3ccc(C(=NC)NCCCN4CCOCC4)cc3)cc2)cc1
inactive: dose: 12.5 mg/kg/injection, schedule: Q01DX Z (ip), vehicle: water 103 % of control | dose: 25.0 mg/kg/injection, schedule: Q01DX Z (ip), vehicle: water 113 % of control

CCC(CC)C(O)CC(O)CC(C)C (stereo not drawn)
inactive: dose: 25.0 mg/kg/injection, schedule: Q04DX003 (ip), vehicle: other 100 % of control | dose: 50.0 mg/kg/injection, schedule: Q04DX003 (ip), vehicle: other 106 % of control | [4] 101 % of control

BrCCC[CH2][Sn]([c]1ccccc1)([c]1ccccc1)[c]1ccccc1
inactive: dose: 50.0 mg/kg/injection, schedule: Q01DX009 (ip), vehicle: saline 100 % of control | dose: 100.0 mg/kg/injection, schedule: Q01DX009 (ip), vehicle: saline 100 % of control | dose: 200.0 mg/kg/injection, schedule: Q01DX009 (ip), vehicle: saline 100 % of control

COc1cc(N=CN(C)C)cc(OC)c1OC
inactive: [5] 101 % of control | dose: 100.0 mg/kg/injection, schedule: Q04DX003 (ip), vehicle: Klucel (hydroxypropylcellulose) (HPC) 97 % of control | [6] 103 % of control | dose: 200.0 mg/kg/injection, schedule: Q04DX003 (ip), vehicle: Klucel (hydroxypropylcellulose) (HPC) 97 % of control | [7] 103 % of control | dose: 400.0 mg/kg/injection, schedule: Q04DX003 (ip), vehicle: Klucel (hydroxypropylcellulose) (HPC) 93 % of control

COc1ccc(Nc2cc(=S)nc(N)[nH]2)cc1
inactive: dose: 100.0 mg/kg/injection, schedule: Q01DX Z (ip), vehicle: methylcellulose (MC) 100 % of control | dose: 200.0 mg/kg/injection, schedule: Q01DX Z (ip), vehicle: methylcellulose (MC) 115 % of control

COc1ccc([N+](=O)[O-])cc1NS(=O)(=O)c1c(C)cc(C)cc1C
inactive: dose: 50.0 mg/kg/injection, schedule: Q01DX009 (ip), vehicle: saline with Tween-80 94 % of control and 88 % of control | dose: 100.0 mg/kg/injection, schedule: Q01DX001 (ip), vehicle: saline with Tween-80 92 % of control | dose: 100.0 mg/kg/injection, schedule: Q01DX009 (ip), vehicle: saline with Tween-80 94 % of control and 97 % of control | dose: 100.0 mg/kg/injection, schedule: Q04DX002 (ip), vehicle: saline with Tween-80 107 % of control | dose: 100.0 mg/kg/injection, schedule: Q04DX003 (ip), vehicle: saline with Tween-80 98 % of control | dose: 200.0 mg/kg/injection, schedule: Q01DX001 (ip), vehicle: saline with Tween-80 104 % of control | dose: 200.0 mg/kg/injection, schedule: Q01DX009 (ip), vehicle: saline with Tween-80 97 % of control and 103 % of control | dose: 200.0 mg/kg/injection, schedule: Q04DX002 (ip), vehicle: saline with Tween-80 103 % of control | dose: 200.0 mg/kg/injection, schedule: Q04DX003 (ip), vehicle: saline with Tween-80 97 % of control | dose: 400.0 mg/kg/injection, schedule: Q01DX001 (ip), vehicle: saline with Tween-80 92 % of control | dose: 400.0 mg/kg/injection, schedule: Q01DX009 (ip), vehicle: saline with Tween-80 97 % of control | dose: 400.0 mg/kg/injection, schedule: Q04DX002 (ip), vehicle: saline with Tween-80 103 % of control | dose: 400.0 mg/kg/injection, schedule: Q04DX003 (ip), vehicle: saline with Tween-80 93 % of control

C/C(=C\CN1C(=O)CCCC1=O)CCC(=O)O
inactive: dose: 100.0 mg/kg/injection, schedule: Q01DX009 (ip), vehicle: other 90 % of control | [4] 102 % of control | dose: 200.0 mg/kg/injection, schedule: Q01DX009 (ip), vehicle: other 98 % of control | dose: 200.0 mg/kg/injection, schedule: Q04DX003 (ip), vehicle: other 91 % of control | dose: 400.0 mg/kg/injection, schedule: Q01DX009 (ip), vehicle: other 93 % of control | dose: 400.0 mg/kg/injection, schedule: Q04DX003 (ip), vehicle: other 93 % of control

C#CCOCCC#N
inactive: dose: 100.0 mg/kg/injection, schedule: Q04DX002 (ip), vehicle: saline 101 % of control | dose: 200.0 mg/kg/injection, schedule: Q04DX002 (ip), vehicle: saline 94 % of control

CCCCC(=O)N/N=C/c1c(O)ccc2ccccc12
inactive: [1] 94 % of control | [2] 94 % of control | [3] 92 % of control

O=[N+]([O-])c1ccc2c(c1)/C(=N\O)c1cc(Br)ccc1-2
inactive: dose: 100.0 mg/kg/injection, schedule: Q01DX001 (ip), vehicle: carboxymethylcellulose (CMC) 105 % of control | dose: 200.0 mg/kg/injection, schedule: Q01DX001 (ip), vehicle: carboxymethylcellulose (CMC) 105 % of control | dose: 400.0 mg/kg/injection, schedule: Q01DX001 (ip), vehicle: carboxymethylcellulose (CMC) 94 % of control

COc1ccc(NC(=O)CCCc2ccc(N(CCCl)CCCl)cc2)cc1
inactive: dose: 4.0 mg/kg/injection, schedule: Q12HX018 (ip), vehicle: other 106 % of control | dose: 6.0 mg/kg/injection, schedule: Q12HX018 (ip), vehicle: other 121 % of control | dose: 8.0 mg/kg/injection, schedule: Q12HX018 (ip), vehicle: other 110 % of control

[Cl][Bi]([Cl])([c]1ccccc1)([c]1ccccc1)[c]1ccccc1
inactive: dose: 100.0 mg/kg/injection, schedule: Q04DX002 (ip), vehicle: Klucel (hydroxypropylcellulose) (HPC) 98 % of control | dose: 200.0 mg/kg/injection, schedule: Q04DX002 (ip), vehicle: Klucel (hydroxypropylcellulose) (HPC) 92 % of control | dose: 400.0 mg/kg/injection, schedule: Q04DX002 (ip), vehicle: Klucel (hydroxypropylcellulose) (HPC) 98 % of control

Cc1cc2oc(/C=N/O)c(C)c2cc1C
inactive: [5] 99 % of control | [6] 96 % of control | [7] 90 % of control
